This is an account of results in US9427468B2, “Compositions and methods for diagnosing and treating community-acquired methicillin-resistant Staphylococcus aureus” (priority 2007, dated 2016).

In brackets after ≈: the same amount, converted by molar mass. Marks after values point to notes of the source that are not given here.

Common to all, as to assay type: cell-based, Staphylococcus aureus
The test system of one experiment is MW2 ex Δpbp4. The experiment is described as follows: MIC by microdilution (CLSI). The source says:
(§1) The present invention was described based on a series of experiments examining the biological basis for CA-MRSA strains versus HA-MRSA strains, focusing on the role of PBPs in CA-MRSA and generally in β-lactam resistance. Experiments were first performed using mutants of various PBPs. In-frame deletion mutants of the genes encoding PBP3 (MW1504) and PBP4 (MW0604), pbp3 and pbp4 respectively, were generated in the CA-MRSA strain MW2 and in HA-MRSA strain COL using the temperature-sensitive allelic replacement vector pMAD (Arnaud, M. et al. 2004. Appl. Environ. Microbiol. 70:6887-6891). PBP4 was also deleted in the HA-MRSA strains Mu50 and N315 and in the CA-MRSA strain USA300. […] Minimum inhibitory concentrations (MICs) were determined according to the Clinical and Laboratory Standards Institute and are a standard method for defining antibiotic efficacy against different organisms. Bacteria, grown to an OD650=1, were added to cation-supplemented Mueller Hinton broth (CSMHB) to achieve a final concentration of 5×10^5 CFU/ml.
(§2) Minimum inhibitory concentrations and minimum bactericidal concentrations (MIC and MBC, respectively) were determined for each isolate in triplicate by microdilution techniques with an inoculum of 5×10^5 CFU/ml according to the Clinical and Laboratory Standards Institute guidelines. Aliquots (5 μl) from clear wells were plated onto TSA drug-free plates for the determination of MBCs, followed by incubation at 37° C. for 24 and 48 hours. For the mutant strains, each one of the three clones was tested. MIC data were reported as median values from at least three independent experiments for each antibiotic. Also, strains containing pEPSA5-based plasmids were tested with and without xylose induction, but chloramphenicol was not added to avoid interference with beta-lactam resistance evaluation. […] The correct inocula were confirmed by plating serial dilutions on agar.
A general note: In broth dilution the organism is exposed to a series of concentrations in liquid medium.

For the next experiment, the system named is N315 wild-type. The experiment is described as follows: MIC by microdilution (CLSI).
From the text: as §1, §2

In experiment [1] the test system is CA-MRSA Strains (30 clinical isolates). The experiment is described as follows: MIC and synergy assay, clinical isolates.
From the text: (§3) Analysis of the Type IV SCCmec element, virtually identical between MW2 and USA300, allowed for identification of four genes conserved in the CA-MRSA background, but not in other known MRSA genomes. These four genes therefore served as biomarkers that could be used to distinguish CA-MRSA strains from HA-MRSA strains. PCR of chromosomal DNAs with oligonucleotides specific for mecA, pvl (Lina, G. et al. 1999. Clin. Infect. Dis. 29:1128-1132) and the four specific genes for CA-MRSAs (MW0042/USA300_0041; MW0043/USA300_0042; MW0046/USA300_0045; and MW0047/USA300_0046) identified 30 isolates positive for these genes. […] The code was subsequently broken, confirming that all 30 isolates, designated as CA-MRSA, were from patients with primary skin infections and annotated by the donating hospital as CA-MRSA while the other were blood isolates designated as HA-MRSA. […] The synergistic inhibitory activity of the combined treatment also was further tested on 30 MRSA isolates from complicated skin and soft tissue infections, with CA-MRSA being the most common etiologic agent.
(§4) Two independent batches of clinical isolates were obtained from the Dartmouth Hitchcock Medical Center, Lebanon, N.H. The first group included 200 blood MRSA isolates sub-cultured on 5% Columbia sheep blood agar (Remel). The second group involved 30 MRSA isolates from complicated skin and soft tissue infections (CSSTI) similarly sub-cultured. All strains were grown overnight in CSMHB broth and streaked on selective mannitol salt agar plates for confirmation. DNA extraction was performed on 500 μl of cultures. PCR was performed on all DNAs with oligonucleotides specific for mecA, pvl and the four genes found to be specific for the SCCmec type IV in CA-MRSA: MW0042, MW0043, MW0046, and MW0047. DNA amplification of mecA was used as a control to confirm that all strains were MRSA. DNAs from S. epidermidis, E. coli and S. pneumoniae were used as negative controls to confirm the specificity of the oligonucleotides. After amplification for 30 cycles (5 min of denaturation at 95° C., 30 s of annealing at 54° C. and 1 min extension at 72° C.), PCR products were resolved by electrophoresis through 1.5% agarose gels stained with ethidium bromide. Given the number of clinical isolates tested, only a small random group of PCR products were subjected to DNA sequencing to confirm specificity. S. aureus strain COL, Mu50, N315 and MRSA252 all tested negative for all MW0042, MW0043 and MW0047 and pvl while USA300 and MW2 were positive controls for this PCR reaction. The primer sequences for mecA, MW0042, MW0043 and MW0047 were as follows: mecA-UP 5′-GGTACTGCTATCCACCCTCAAA-3′ (SEQ ID NO:19), mecA-LOW 5′-TTACGACTTGTTGCATACCATCA-3′ (SEQ ID NO:20), MW0042-UP 5′-ATTGGCAGAAATAAACAAAACG-3′ (SEQ ID NO:21), MW0042-LOW 5′-TCGTTTAATTTTTTCCCAAACTC-3′ (SEQ ID NO:22), MW0043-UP 5′-GTTTCAGTTGGTGTTGAAGATCC-3′ (SEQ ID NO:23), MW0043-LOW 5′-CCTATAATTTTCGATAGATTCGTG-3′ (SEQ ID NO:24), MW0047-UP 5′-AGGCATATAAAGAAGCAGGAAAG-3′ (SEQ ID NO:25), MW0047-LOW 5′-CACACTGTTTTCCTACGATATTTG-3′ (SEQ ID NO:26).
as §2, with “agar. […]” for “agar.”

Experiment [2] concerns CA-MRSA from CSSTI (30 isolates). The experiment in a line: MIC and synergy assay, clinical isolates.
From the text: as §3, §4
as §2, with “agar. […]” for “agar.”

Experiment [3] concerns HA-MRSA Strains (30 clinical isolates). The experiment is described as follows: MIC and synergy assay, clinical isolates.
From the text: as §3, §4
as §2, with “agar. […]” for “agar.”

The mark [4] stands for this setting: Staphylococcus aureus, read-out: MICs.
Where [5] appears, read: Staphylococcus aureus, MRSA, 48 h, read-out: MICs 48 hr.

On to `CO[C@@]1(NC(=O)Cc2cccs2)C(=O)N2C(C(=O)O)=C(COC(N)=O)CS[C@@H]21` [CX, cefoxitin], for which the MIC with MW2 ex Δpbp4 (setting [4]) was 16 µg/mL (≈ 37.4 µM); in the experiment on N315 wild-type (setting [4]), 64 µg/mL (≈ 150 µM); in experiment [1] (setting [5]) it was 64 µg/mL; in experiment [2] (setting [5]), 64 µg/mL; in experiment [3] (setting [5]), 128 µg/mL.

In the case of `Cc1onc(-c2ccccc2)c1C(=O)N[C@@H]1C(=O)N2[C@@H]1SC(C)(C)[C@@H]2C(=O)O` [OX, oxacillin], the “reduction in oxacillin MIC for the pbp4 mutant” value in the experiment with MW2 ex Δpbp4 (MW2 ex Δpbp4 versus MW2 ex) was determined as 64 fold. Further, the MICs in the experiment with MW2 ex Δpbp4 (Table 1, MW2 ex Δpbp4) amounted to 2 µg/mL; against N315 wild-type (Table 1, N315 wild-type) it was 256 µg/mL. The “MICs 48 hr” value in experiment [1] (30 CA-MRSA clinical isolates, median values, 48 hr) was 64^b μg/ml; in experiment [2] (30 CSSTI isolates, median values, 48 hr) it was 64^b μg/ml; in experiment [3] (30 HA-MRSA clinical isolates, median values, 48 hr), 256^b μg/ml.
